Data reported in patent US20130324564A1, “POLYMORPHS OF (S)-1-(4,4,6,6,6-PENTADEUTERO-5-HYDROXYHEXYL)-3-7-DIMETHYL-1H-PURINE-2,6(3H,7H)-DIONE” (CONCERT PHARMACEUTICALS, INC., priority 2010, published 2013).

How the values were obtained:
[1] = Relative thermodynamic stability and interconversion of polymorphs; type: physicochemical
[2] = Solid-form stability of Form 1 under humidity, pressure and grinding stress; type: physicochemical

SMILES	relative thermodynamic stability ([1]; compared with the other polymorphs)	form stability / form change ([2]; exposed to 0.35 GPa pressure)	form stability / form change ([2]; exposed to 97% relative humidity for up to 12 days)	form stability / form change ([2]; ground at ambient temperature (30Hz for 2hrs))	form stability / form change ([2]; ground at −196° C. (25Hz for 0.5hrs))	form conversion ([1]; upon air drying, storage and/or slurrying at room temperature)
[2H]C([2H])([2H])[C@H](O)C([2H])([2H])CCCn1c(=O)c2c(ncn2C)n(C)c1=O [Form 1, (S)-1-(4,4,6,6,6-pentadeutero-5-hydroxyhexyl)-3,7-dimethyl-1H-purine-2,6(3H,7H)-dione]	more thermodynamically stable than any of Forms 2, 3 and 4	stable and did not undergo a form change	stable and did not undergo a form change	stable and did not undergo a form change	stable and did not undergo a form change	–
[2H]C([2H])([2H])[C@H](O)C([2H])([2H])CCCn1c(=O)c2c(ncn2C)n(C)c1=O [Form 2, (S)-1-(4,4,6,6,6-pentadeutero-5-hydroxyhexyl)-3,7-dimethyl-1H-purine-2,6(3H,7H)-dione]	–	–	–	–	–	convert to Form 1
